Results published in the NIST ThermoML archive (doi:10.1016/j.jct.2010.11.007).
Where “and” joins values, the source holds several entries; their conditions need not be identical. Equal values may be shown once. Numbers after ± are expanded uncertainties.

Legend:
[1] = refractive index (Na D-line) (dimensionless); conditions: 101.33 kPa, Liquid, Standard Abbe refractometry
[2] = 101.33 kPa, Liquid; for speed of sound: Sing-around technique in a fixed-path interferometer; for mass density: Vibrating tube method
[3] = refractive index (Na D-line) (dimensionless); xn = mol fraction of the nth substance listed; conditions: 101 kPa, Liquid, Standard Abbe refractometry, x2 = 0
[4] = xn = mol fraction of the nth substance listed; conditions: Liquid, x2 = 0; for speed of sound: Sing-around technique in a fixed-path interferometer; for mass density: Vibrating tube method

In the case of `C=CC(C)(O)CCC=C(C)C` (stereo unspecified) [3,7-dimethyl-1,6-octadien-3-ol], the refractive index ([1]; 283.15 K) is reported as 1.46659 ± 0.0005 and 1.4666 ± 0.0005, the refractive index ([1]; 298.15 K) is reported as 1.45946 ± 0.0005 and the refractive index ([1]; 313.15 K) is reported as 1.45215 ± 0.0005. For the same compound, the refractive index ([1]; 328.15 K) was 1.44473 ± 0.0005, the speed of sound ([2]; 283.15 K) was 1370.3 ± 2 m/s and the mass density ([2]; 283.15 K) was 869.39 ± 0.63 kg/m3. It also gave a speed of sound ([2]; 298.15 K) of 1315.1 ± 2 m/s, a mass density ([2]; 298.15 K) of 857 ± 0.62 kg/m3 and a speed of sound ([2]; 313.15 K) of 1260.8 ± 2 m/s. The mass density ([2]; 313.15 K) was 844.29 ± 0.61 kg/m3, the speed of sound ([2]; 328.15 K) was 1207.6 ± 2 m/s and the mass density ([2]; 328.15 K) was 831.31 ± 0.6 kg/m3.
For `CCCO` [propan-1-ol] + C=CC(C)(O)CCC=C(C)C, the refractive index ([3]; 283.15 K) was 1.38906 ± 0.00032, the refractive index ([3]; 298.15 K) was 1.38288 ± 0.00032 and the refractive index ([3]; 313.15 K) was 1.3766 ± 0.00032. It also gave a refractive index ([3]; 328.15 K) of 1.37015 ± 0.00032, a speed of sound ([4]; 283.15 K, 101 kPa) of 1258 ± 0.7 m/s and a mass density ([4]; 283.15 K, 101 kPa) of 811.52 ± 0.13 kg/m3. For the same compound, the mass density ([4]; 283.15 K, 20000 kPa) was 825.3 ± 1 kg/m3, the mass density ([4]; 283.15 K, 25000 kPa) was 828.5 ± 1 kg/m3 and the mass density ([4]; 283.15 K, 30000 kPa) was 831.5 ± 1 kg/m3. It also gave a mass density ([4]; 283.15 K, 35000 kPa) of 834.5 ± 1 kg/m3, a mass density ([4]; 283.15 K, 40000 kPa) of 837.4 ± 1.1 kg/m3 and a speed of sound ([4]; 298.15 K, 101 kPa) of 1206.3 ± 0.7 m/s. It also gave a mass density ([4]; 298.15 K, 101 kPa) of 799.56 ± 0.13 kg/m3, a mass density ([4]; 298.15 K, 20000 kPa) of 814.3 ± 1 kg/m3 and a mass density ([4]; 298.15 K, 25000 kPa) of 817.8 ± 1 kg/m3. The mass density ([4]; 298.15 K, 30000 kPa) was 821 ± 1 kg/m3, the mass density ([4]; 298.15 K, 35000 kPa) was 824.1 ± 1.1 kg/m3 and the mass density ([4]; 298.15 K, 40000 kPa) was 827.3 ± 1.1 kg/m3. The speed of sound ([4]; 313.15 K, 101 kPa) was 1156.8 ± 0.7 m/s, the mass density ([4]; 313.15 K, 101 kPa) was 787.34 ± 0.14 kg/m3 and the mass density ([4]; 313.15 K, 20000 kPa) was 803.3 ± 1 kg/m3. For the same compound, the mass density ([4]; 313.15 K, 25000 kPa) was 806.9 ± 1 kg/m3, the mass density ([4]; 313.15 K, 30000 kPa) was 810.4 ± 1 kg/m3 and the mass density ([4]; 313.15 K, 35000 kPa) was 813.8 ± 1.1 kg/m3. The mass density ([4]; 313.15 K, 40000 kPa) was 817 ± 1.1 kg/m3, the speed of sound ([4]; 328.15 K, 101 kPa) was 1106.8 ± 0.7 m/s and the mass density ([4]; 328.15 K, 101 kPa) was 774.69 ± 0.14 kg/m3. It also gave a mass density ([4]; 328.15 K, 20000 kPa) of 792.1 ± 1 kg/m3, a mass density ([4]; 328.15 K, 25000 kPa) of 795.9 ± 1 kg/m3 and a mass density ([4]; 328.15 K, 30000 kPa) of 799.6 ± 1.1 kg/m3. The mass density ([4]; 328.15 K, 35000 kPa) was 803.2 ± 1.1 kg/m3 and the mass density ([4]; 328.15 K, 40000 kPa) was 806.6 ± 1.1 kg/m3.
With `CCCO` [propan-1-ol] the refractive index ([1]; 283.15 K) was 1.38906 ± 0.00032, the refractive index ([1]; 298.15 K) was 1.38288 ± 0.00032 and the refractive index ([1]; 313.15 K) was 1.3766 ± 0.00032. It also gave a refractive index ([1]; 328.15 K) of 1.37015 ± 0.00032, a speed of sound ([2]; 283.15 K) of 1257.9 ± 0.7 m/s and a mass density ([2]; 283.15 K) of 811.52 ± 0.13 kg/m3. The speed of sound ([2]; 298.15 K) was 1206.3 ± 0.7 m/s, the mass density ([2]; 298.15 K) was 799.56 ± 0.13 kg/m3 and the speed of sound ([2]; 313.15 K) was 1156.8 ± 0.7 m/s. It also gave a mass density ([2]; 313.15 K) of 787.33 ± 0.14 kg/m3, a speed of sound ([2]; 328.15 K) of 1106.8 ± 0.7 m/s and a mass density ([2]; 328.15 K) of 774.69 ± 0.14 kg/m3.
